Results reported in US20260294922A1, “Inhibitors of JUN N-Terminal Kinases (JNK1, JNK2, and/or JNK3) and Mitogen-Activated Protein Kinases (MAPK8, MAPK9, and/or MAPK10) and Methods of Using Same” (Baylor College of Medicine, priority 2023, published 2026).
≈ marks a conversion by molar mass, not a printed value.

Assays:
JNK2 = JNK2 (Homo sapiens, UniProt P45984); experiment: JNK2 kinase (intrinsic ATPase, Kinase-Glo) assay; assay type: biochemical; conditions: Table 3a; read-out: Kd JNK2
[1] = In vitro metabolism in mouse liver microsomes; conditions: for half-life: mouse, microsomes
Procedure: (§1) The target product profile seeks to deliver JNK inhibitor as a once daily oral administration. To prioritize compounds for further development, in vitro metabolism of several CDD JNK inhibitors were determined to approximate the plasma half-life and the rate of metabolism of the compounds in vivo.

[2] = In vitro metabolism in human liver microsomes; conditions: for half-life: human, microsomes
Procedure: as §1

JNK1 = JNK1 (Homo sapiens, UniProt P45983); experiment: JNK1 kinase (intrinsic ATPase, Kinase-Glo) assay; assay type: biochemical
Procedure: JNK1, JNK2, and JNK3 hydrolyze ATP to ADP without any peptide substrates. This allows a very robust and fast endpoint assay where the remaining concentration of ATP is measured (BMG ClarioStar Plus plate reader) using the Kinase-Glo Assay kit from Promega (V6711). A luminescence signal is measured, which is produced by the catalytic conversion of beetle luciferin to oxyluciferin by luciferase. Potential inhibition of luciferase (i.e., false negatives) is easily detected, because assays without kinase are always included, and less ATP than is present in this control reaction could also indicate an inhibition of luciferase, which can be excluded by a counter screen with only luciferase.
To mitigate violation of the linear initial velocity principle, which is a problem in end-point assays when doing dose-responses, the enzyme concentration was carefully optimized, in a total assay volume of 25 μL. […] The kinase reaction was done for 30 or 60 min at 30° C., and detection of leftover ATP was measured according to Promega's protocol. […] Fractional activities were obtained from normalized data. Non-linear regression (GraphPad Prism7) and a modified Morrison equation for tight binding was used to determine apparent Ki values for inhibitors, assuming no particular mode of inhibition. An orthogonal binding assay (LanthaScreen) was outsourced to ThermoFisher Scientific's SelectScreen Services to determine IC50 values.

JNK3 = JNK3 (Homo sapiens, UniProt P53779); experiment: JNK3 kinase (intrinsic ATPase, Kinase-Glo) assay; assay type: biochemical; conditions: Table 3a; read-out: Kd JNK3
Chain of JNK3 (P53779 whole entry): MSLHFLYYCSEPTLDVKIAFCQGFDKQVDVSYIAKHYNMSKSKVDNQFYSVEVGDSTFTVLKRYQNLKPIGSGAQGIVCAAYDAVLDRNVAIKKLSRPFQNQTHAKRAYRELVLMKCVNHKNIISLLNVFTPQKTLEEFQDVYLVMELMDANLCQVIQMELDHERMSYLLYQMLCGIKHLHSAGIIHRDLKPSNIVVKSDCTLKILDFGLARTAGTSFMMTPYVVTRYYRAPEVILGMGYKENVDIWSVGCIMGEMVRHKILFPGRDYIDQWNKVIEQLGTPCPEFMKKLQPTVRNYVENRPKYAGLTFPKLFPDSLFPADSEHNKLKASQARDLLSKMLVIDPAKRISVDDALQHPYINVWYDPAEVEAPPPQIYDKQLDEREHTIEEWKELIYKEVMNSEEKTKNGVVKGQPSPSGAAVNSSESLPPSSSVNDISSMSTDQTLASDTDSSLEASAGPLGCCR

Chain of JNK2 (P45984 whole entry): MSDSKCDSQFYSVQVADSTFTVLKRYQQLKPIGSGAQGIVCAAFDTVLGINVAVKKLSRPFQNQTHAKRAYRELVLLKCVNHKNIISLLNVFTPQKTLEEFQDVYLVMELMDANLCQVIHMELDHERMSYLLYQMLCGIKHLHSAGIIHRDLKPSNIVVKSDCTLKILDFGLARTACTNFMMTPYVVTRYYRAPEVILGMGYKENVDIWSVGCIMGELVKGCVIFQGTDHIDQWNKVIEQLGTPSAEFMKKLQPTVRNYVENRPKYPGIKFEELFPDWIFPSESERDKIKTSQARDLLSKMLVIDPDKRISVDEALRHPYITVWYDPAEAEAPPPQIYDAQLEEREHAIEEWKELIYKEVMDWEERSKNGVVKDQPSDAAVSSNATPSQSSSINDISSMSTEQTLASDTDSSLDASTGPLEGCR
Chain of JNK1 (P45983 whole entry): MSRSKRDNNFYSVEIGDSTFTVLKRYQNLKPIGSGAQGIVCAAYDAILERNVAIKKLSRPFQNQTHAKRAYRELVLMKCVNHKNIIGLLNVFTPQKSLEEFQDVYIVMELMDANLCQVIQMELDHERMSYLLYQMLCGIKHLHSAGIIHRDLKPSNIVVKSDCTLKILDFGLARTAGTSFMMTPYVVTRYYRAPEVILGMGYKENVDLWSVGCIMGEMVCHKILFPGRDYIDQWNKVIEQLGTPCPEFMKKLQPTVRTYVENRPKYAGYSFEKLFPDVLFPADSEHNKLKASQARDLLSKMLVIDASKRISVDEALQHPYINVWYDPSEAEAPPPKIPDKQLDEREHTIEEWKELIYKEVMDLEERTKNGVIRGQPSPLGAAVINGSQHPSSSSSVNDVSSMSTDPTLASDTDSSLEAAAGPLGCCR

| SMILES | Kd (JNK2) | half-life [1] | half-life [2] | Kd (JNK1) | Kd (JNK3) | solubility (Solubility) | Ki (JNK1; Table 3b, read-out: Ki(app) JNK1) | Predicted half-life, MLM t1/2 [1] | Predicted half-life, HLM t1/2 [2] |
| --- | --- | --- | --- | --- | --- | --- | --- | --- | --- |
| CN(C)C(=O)c1cc(NC(=O)c2ccc3ncc(-c4cnc5[nH]ccc5c4)n3c2)ccc1O [CDD-3016] | 5.77 ± 0.8 nM | 5.3 h | 4.88 h | 0.65 ± 0.15 nM | 1.48 ± 0.14 nM | 9.7 µM (≈ 4.27 µg/mL) | – | – | – |
| CN(C)CCNC(=O)c1cc2c(-c3cnc4[nH]ccc4c3)cccc2s1 [CDD-3085, N-(2-(dimethylamino)ethyl)-4-(1H-pyrrolo[2,3-b]pyridin-5-yl)benzo[b]thiophene-2-carboxamide] | 42.8 ± 8.3 nM | 1.17 h | 7.5 h | 13.1 ± 1.2 nM | 30.3 ± 2.7 nM | 170 µM (≈ 62 µg/mL) | – | – | – |
| CN(C)CCNC(=O)c1cc(NC(=O)c2cc3c(-c4cnc5[nH]ccc5c4)cccc3s2)ccc1O [CDD-3086, N-(3-((2-(dimethylamino)ethyl)carbamoyl)-4-hydroxyphenyl)-4-(1H-pyrrolo[2,3-b]pyridin-5-yl)benzo[b]thiophene-2-carboxamide] | 5.98 ± 0.42 nM | 1.5 h | 1.68 h | 0.67 ± 0.14 nM | 5.21 ± 0.46 nM | 2 µM (≈ 0.999 µg/mL) | – | – | – |
| CNC(=O)c1cc(NC(=O)c2cc3c(-c4cnc5[nH]ccc5c4)cccc3s2)ccc1O [CDD-3087, N-(4-hydroxy-3-(methylcarbamoyl)phenyl)-4-(1H-pyrrolo[2,3-b]pyridin-5-yl)benzo[b]thiophene-2-carboxamide] | 11.4 ± 0.81 nM | 1.28 h | 1.97 h | 1.96 ± 0.53 nM | 4.54 ± 0.5 nM | 0.4 µM (≈ 0.177 µg/mL) | – | – | – |
| CN(C)C(=O)c1cc(NC(=O)c2cc3c(-c4cnc5[nH]ccc5c4)cncc3s2)ccc1O [CDD-3111, N-(3-(dimethylcarbamoyl)-4-hydroxyphenyl)-4-(1H-pyrrolo[2,3-b]pyridin-5-yl)thieno[2,3-c]pyridine-2-carboxamide] | 0.73 ± 0.1 nM | 2.07 h | 2.22 h | 0.07 ± 0.05 nM | 0.32 ± 0.04 nM | 3.8 µM (≈ 1.74 µg/mL) | – | – | – |
| O=C(Nc1ccc(O)c(C(=O)NC2COC2)c1)c1cc2c(-c3cnc4[nH]ccc4c3)cccc2s1 [CDD-3112, N-(4-hydroxy-3-(oxetan-3-ylcarbamoyl)phenyl)-4-(1H-pyrrolo[2,3-b]pyridin-5-yl)benzo[b]thiophene-2-carboxamide] | 13.5 ± 0.8 nM | 2.83 h | 1.65 h | 2.84 ± 0.49 nM | 6.4 ± 0.6 nM | 1.6 µM (≈ 0.775 µg/mL) | – | – | – |
| O=C(Nc1ccc(O)c(C(=O)NCC2CC2)c1)c1cc2c(-c3cnc4[nH]ccc4c3)cccc2s1 [CDD-3113, N-(3-((cyclopropylmethyl)carbamoyl)-4-hydroxyphenyl)-4-(1H-pyrrolo[2,3-b]pyridin-5-yl)benzo[b]thiophene-2-carboxamide] | 40.7 ± 5.5 nM | 3.15 h | 4.8 h | 10.4 ± 1.4 nM | 10.9 ± 0.7 nM | – | – | – | – |
| O=C(Nc1ccc2c(c1)C(=O)NC2)c1cc2c(-c3cnc4[nH]ccc4c3)cccc2s1 [CDD-3115, N-(3-oxoisoindolin-5-yl)-4-(1H-pyrrolo[2,3-b]pyridin-5-yl)benzo[b]thiophene-2-carboxamide] | 6.3 ± 0.6 nM | 1.43 h | 14.8 h | 1.5 ± 0.2 nM | 4.6 ± 0.7 nM | 1.4 µM (≈ 0.594 µg/mL) | – | – | – |
| O=C(c1cc2c(-c3cnc4[nH]ccc4c3)cccc2s1)N1CCN(c2ccccc2)C(=O)C1 [CDD-3116, 4-(4-(1H-pyrrolo[2,3-b]pyridin-5-yl)benzo[b]thiophene-2-carbonyl)-1-phenylpiperazin-2-one] | 447 ± 65 nM | 0.567 h | 0.8 h | 54.5 ± 5.4 nM | 114 ± 7 nM | 4.2 µM (≈ 1.9 µg/mL) | – | – | – |
| CCN(CC)Cc1cc(NC(=O)c2cc3c(-c4cnc5[nH]ccc5c4)cccc3s2)ccc1O [CDD-3117, N-(3-((diethylamino)methyl)-4-hydroxyphenyl)-4-(1H-pyrrolo[2,3-b]pyridin-5-yl)benzo[b]thiophene-2-carboxamide] | 2.1 ± 0.3 nM | 1.9 h | 0.517 h | 0.9 ± 0.2 nM | 2.9 ± 0.4 nM | 3.4 µM (≈ 1.6 µg/mL) | – | – | – |
| N#Cc1cc(NC(=O)c2cc3c(-c4cnc5[nH]ccc5c4)cccc3s2)ccc1O [CDD-3126, N-(3-cyano-4-hydroxyphenyl)-4-(1H-pyrrolo[2,3-b]pyridin-5-yl)benzo[b]thiophene-2-carboxamide] | – | 2.4 h | 5.4 h | – | – | > 200 µM | 30 nM | – | – |
| Cc1sc2c(c1C)C(c1ccc(Cl)cc1)=N[C@@H](CC(=O)OC(C)(C)C)c1nnc(C)n1-2 [JQ1, reference compound] | – | – | – | – | – | – | – | 0.193 h | 0.275 h |
